Data reported in ChEMBL document CHEMBL1158135, “Sulfated alkenes from the echinus Temnopleurus hardwickii” (J Nat Prod, 2006).
pIC50: −log10 of the molar value.

System: P388
Experiment: Cytotoxicity against mouse P388 cells after 72 hrs by MTT assay
Assay type: functional, cell-based
Conditions: P388, 72 h

Q: How did the pIC50 turn out when `CC(=O)CC(C)(C)N.CC(C)=CCC[C@@H](C)/C=C/CCOS(=O)(=O)O` was run?
A: 3.54
